# Like-named read-outs stand apart in the source and are kept apart here. *1 amine or outer side, *2 acyl side, *3 side chain or, on linkers, in order; H or OH if unused. Where a SMILES comes first, the peptide text is derived from it. Bridges are numbered along the chain shown (N, C = ends). [ ]: non-standard residue; d: D form. The star is where a group is joined. hPhe(3-Cl-4-CF3) = N[C@@H](CCc1ccc(C(F)(F)F)c(Cl)c1)C(=O)O; X40 = CC(C)CN([C@@H](Cc1ccc(C(F)(F)F)cc1)C(=O)[*:2])[*:1]; NPrPhe(4-CF3) = CCCN[C@@H](Cc1ccc(C(F)(F)F)cc1)C(=O)O; NEtPhe(4-Me) = CCN[C@@H](Cc1ccc(C)cc1)C(=O)O; NMeGly(cPent) = CN[C@H](C(=O)O)C1CCCC1; NMeD = CN[C@@H](CC(=O)O)C(=O)O; NMeL = CN[C@@H](CC(C)C)C(=O)O; Morpholide = C1CN(*)CCO1; Ac5c = NC1(C(=O)O)CCCC1; Aze = O=C(O)[C@@H]1CCN1; NPrGly = CCCNCC(=O)O; Sar = CNCC(=O)O
# Legend:
# [1] = target: GDP-bound KRAS wild-type protein (Homo sapiens, UniProt P01116); experiment: Binding to KRAS by surface plasmon resonance (SPR), Single Cycle Kinetics; conditions: GDP-bound KRAS wild-type protein, read-out: KRAS KD
# GDP-bound KRAS wild-type protein, sequence (P01116 whole entry): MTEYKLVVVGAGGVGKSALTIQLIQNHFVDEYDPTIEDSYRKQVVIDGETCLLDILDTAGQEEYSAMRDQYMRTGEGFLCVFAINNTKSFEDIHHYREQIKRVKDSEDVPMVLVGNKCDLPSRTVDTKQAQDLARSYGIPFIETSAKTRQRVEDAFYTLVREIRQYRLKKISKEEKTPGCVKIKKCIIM
# [2] = target: GDP-bound NRAS wild-type protein (Homo sapiens, UniProt P01111); experiment: Binding to NRAS by surface plasmon resonance (SPR), Single Cycle Kinetics; conditions: for NRAS/KRAS (ratio of KD value for NRAS to KD value for KRAS) / NRAS/KRAS (ratio of KD value with respect to NRAS to KD value with respect to KRAS): SPR, GDP-bound NRAS wild-type protein vs GDP-bound KRAS wild-type protein
# GDP-bound NRAS wild-type protein, sequence (P01111 whole entry): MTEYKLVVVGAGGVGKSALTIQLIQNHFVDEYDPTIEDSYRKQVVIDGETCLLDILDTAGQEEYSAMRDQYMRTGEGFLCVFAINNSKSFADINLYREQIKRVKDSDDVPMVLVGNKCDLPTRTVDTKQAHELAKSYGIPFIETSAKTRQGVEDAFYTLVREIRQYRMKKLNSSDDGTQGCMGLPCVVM
# [3] = target: GDP-bound HRAS wild-type protein (Homo sapiens, UniProt P01112); experiment: Binding to HRAS by surface plasmon resonance (SPR), Single Cycle Kinetics; conditions: for HRAS/KRAS (ratio of KD value for HRAS to KD value for KRAS) / HRAS/KRAS (ratio of KD value with respect to HRAS to KD value with respect to KRAS): SPR, GDP-bound HRAS wild-type protein vs GDP-bound KRAS wild-type protein
# GDP-bound HRAS wild-type protein, sequence (P01112 whole entry): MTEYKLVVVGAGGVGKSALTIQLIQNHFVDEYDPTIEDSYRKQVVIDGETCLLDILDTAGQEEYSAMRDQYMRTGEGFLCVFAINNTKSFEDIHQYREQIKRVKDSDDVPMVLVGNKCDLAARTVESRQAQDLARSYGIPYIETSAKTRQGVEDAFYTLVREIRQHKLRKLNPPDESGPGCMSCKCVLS
# [4] = SPR, Single Cycle Kinetics, 1:1 binding model
# [5] = SPR Single Cycle Kinetics, 1:1 binding model
compound,measurement,setting,value
"CCC[C@H]1C(=O)N[C@@H]([C@@H](C)CC)C(=O)N(C)CC(=O)N(C)[C@H]2C/C=C\CCN(C2=O)[C@@H](Cc2ccc(C(F)(F)F)cc2)C(=O)N(C)CC(=O)N[C@@H](CCc2cc(F)c(C(F)(F)F)c(F)c2)C(=O)N2C[C@H](OCC)C[C@H]2C(=O)NC2(CCC2)C(=O)N(C)[C@@H](C2CCCC2)C(=O)N(C)[C@H](C(=O)N(C)CC)CC(=O)N1C [PP1304, (2S,8S,12R,14S,20S,23S,27S,30S,36S,38Z)-20-cyclopentyl-8-[2-[3,5-difluoro-4-(trifluoromethyl)phenyl]ethyl]-12-ethoxy-N-ethyl-N,4,19,22,26,32,35-heptamethyl-30-[(1S)-1-methylpropyl]-3,6,9,15,18,21,25,28,31,34,42-undecaoxo-27-propyl-2-[[4-(trifluoromethyl)phenyl]methyl]spiro[1,4,7,10,16,19,22,26,29,32,35-undecazatricyclo[34.5.1.0^10,14]dotetracont-38-ene-17,1′-cyclobutane]-23-carboxamide]",Kd,[1]; [4],0.07 nM
same,NRAS/KRAS (ratio of KD value for NRAS to KD value for KRAS),[2]; KD ratio class,A (a compound having 10 or more and less than 20 is denoted as A)
same,HRAS/KRAS (ratio of KD value for HRAS to KD value for KRAS),[3]; KD ratio class,A (a compound having 10 or more and less than 20 is denoted as A)
CC[C@H](C)[C@@H]1NC(=O)[C@H](CC(C)C)N(C)C(=O)C[C@@H](C(=O)N2CCOCC2)N(C)C(=O)[C@H](C2CCCC2)N(C)C(=O)C2(CCCC2)NC(=O)[C@@H]2CCCN2C(=O)[C@H](CCc2ccc(C(F)(F)F)c(Cl)c2)NC(=O)CN(C)C(=O)[C@H](Cc2ccc(OC)cc2)N2CCCCC[C@@H](C2=O)N(C)C(=O)CN(C)C1=O [PP0614],Kd,[1]; [5],1.1 nM
same,NRAS/KRAS (ratio of KD value with respect to NRAS to KD value with respect to KRAS),[2],B (a compound having 3 or more and less than 10 is denoted as B)
same,HRAS/KRAS (ratio of KD value with respect to HRAS to KD value with respect to KRAS),[3],B (a compound having 3 or more and less than 10 is denoted as B)
CCO[C@@H]1C[C@H]2C(=O)NC3(CC(C)(C)C3)C(=O)N(C)[C@@H](C3CCCC3)C(=O)N(C)[C@H](C(C)C)CC(=O)N(C)[C@@H](CC)C(=O)N[C@@H]([C@@H](C)CC)C(=O)N(C)CC(=O)N(C)[C@H]3C/C=C\CCN(C3=O)[C@@H](CC3CCCCC3)C(=O)N(C)CC(=O)N[C@@H](CCc3cc(F)c(C(F)(F)F)c(F)c3)C(=O)N2C1 [PP1603],Kd,[1]; [4],5.3 nM
same,NRAS/KRAS (ratio of KD value for NRAS to KD value for KRAS),[2]; KD ratio class,B (a compound having 3 or more and less than 10 is denoted as B)
same,HRAS/KRAS (ratio of KD value for HRAS to KD value for KRAS),[3]; KD ratio class,B (a compound having 3 or more and less than 10 is denoted as B)
CC[C@H](C)[C@@H]1NC(=O)[C@H](CC2CC2)N(C)C(=O)C[C@@H](C(=O)N2CCCC2)N(C)C(=O)[C@H](C2CCCC2)N(C)C(=O)C2(CCCC2)NC(=O)[C@@H]2C[C@@H](C(F)(F)F)CN2C(=O)[C@H](CCc2cc(F)c(C(F)(F)F)c(F)c2)NC(=O)CN(C)C(=O)[C@H](Cc2ccc(C(F)(F)F)cc2)N2CC/C=C\C[C@@H](C2=O)N(C)C(=O)CN(C)C1=O [PP1506],Kd,[1]; [4],0.34 nM
same,NRAS/KRAS (ratio of KD value for NRAS to KD value for KRAS),[2]; KD ratio class,AA (a compound having 20 or more is denoted as AA)
same,HRAS/KRAS (ratio of KD value for HRAS to KD value for KRAS),[3]; KD ratio class,A (a compound having 10 or more and less than 20 is denoted as A)
CC[C@H](C)[C@@H]1NC(=O)[C@H](CC(C)C)N(C)C(=O)C[C@@H](C(=O)N2CCOCC2)N(C)C(=O)[C@H](C2CCCCC2)N(C)C(=O)C2(CCCC2)NC(=O)[C@@H]2CCCN2C(=O)[C@H](CCc2cc(F)c(C(F)(F)F)c(F)c2)NC(=O)CN(C)C(=O)[C@H](Cc2ccc(C(F)(F)F)cc2)N2CCCCC[C@@H](C2=O)N(C)C(=O)CN(C)C1=O [PP0505],Kd,[1]; [5],10 nM
same,NRAS/KRAS (ratio of KD value with respect to NRAS to KD value with respect to KRAS),[2],B (a compound having 3 or more and less than 10 is denoted as B)
same,HRAS/KRAS (ratio of KD value with respect to HRAS to KD value with respect to KRAS),[3],B (a compound having 3 or more and less than 10 is denoted as B)
CC[C@H](C)[C@@H]1NC(=O)[C@@H]2CCC/C=C/c3ccc(cc3)C[C@@H](C(=O)N(C)CC(=O)N[C@@H](CCc3ccc(Cl)c(Cl)c3)C(=O)N3CCC[C@H]3C(=O)NC3(CC(C)(C)C3)C(=O)N(C)[C@@H](C3CCCC3)C(=O)N(C)[C@H](C(=O)N(C)CC)CC(=O)N2C)N2CC/C=C\C[C@@H](C2=O)N(C)C(=O)CN(C)C1=O [PP2601],Kd,[1]; [5],0.2 nM
same,NRAS/KRAS (ratio of KD value with respect to GDP-bound NRAS wild-type protein to KD value with respect to KRAS),"[2]; SPR KD ratio NRAS/KRAS, class symbols",A (a compound having 10 or more and less than 20 is denoted as A)
same,HRAS/KRAS (ratio of KD value with respect to GDP-bound HRAS wild-type protein to KD value with respect to KRAS),"[3]; SPR KD ratio HRAS/KRAS, class symbols",A (a compound having 10 or more and less than 20 is denoted as A)
"CCO[C@@H]1C[C@H]2C(=O)NC3(CC(C)(C)C3)C(=O)N(C)[C@@H](C3CCCC3)C(=O)N(C)[C@H](C(=O)N3CCCC3)CC(=O)N(C)[C@H]3CCCCCCc4ccc(cc4)C[C@@H](C(=O)N(C)CC(=O)N[C@@H](CCc4ccc(C(F)(F)F)c(OC)c4)C(=O)N2C1)N1CC/C=C\C[C@@H](C1=O)N(C)C(=O)CN(C)C(=O)[C@H]([C@@H](C)CC)NC3=O [PP3034, (1S,7S,11R,13S,19S,22S,26S,29S,35S,37Z)-19-cyclopentyl-11-ethoxy-7-[2-[3-methoxy-4-(trifluoromethyl)phenyl]ethyl]-3,3′,3′,18,21,25,31,34-octamethyl-29-[(1S)-1-methylpropyl]-22-(pyrrolidine-1-carbonyl)spiro[3,6,9,15,18,21,25,28,31,34,41-undecazapentacyclo[24.15.11.2^43,46.1^35,41.0^9,13]pentapentaconta-37,43(54),44,46(53)-tetraene-16,1′-cyclobutane]-2,5,8,14,17,20,24,27,30,33,55-undecone]",Kd,"[1]; SPR, Single Cycle Kinetics",0.11 nM
same,NRAS/KRAS (ratio of KD value for NRAS to KD value for KRAS),[2],A (a compound having 10 or more and less than 20 is denoted as A)
same,HRAS/KRAS (ratio of KD value for HRAS to KD value for KRAS),[3],B (a compound having 3 or more and less than 10 is denoted as B)
CC[C@H](C)[C@@H]1NC(=O)[C@H](CC(C)C)N(C)C(=O)C[C@@H](C(=O)N2CCOCC2)N(C)C(=O)[C@H](CC(C)C)N(C)C(=O)C2(CCCC2)NC(=O)[C@@H]2CCCN2C(=O)[C@H](CCc2ccc(C(F)(F)F)c(Cl)c2)NC(=O)CN(C)C(=O)[C@H](Cc2ccc(C)cc2)N(CC)C(=O)CN(C)C(=O)CN(C)C1=O [PP0045] ([NMeL]I[Sar][Sar][NEtPhe(4-Me)][Sar][hPhe(3-Cl-4-CF3)]P[Ac5c][NMeL][NMeD]-Morpholide; lactam N-11),Kd,[1]; [5],2.3 nM
same,NRAS/KRAS (ratio of KD value for NRAS to KD value for KRAS),[2],C (A compound having a KD ratio of 0.1 or more and less than 3 is denoted as C)
same,HRAS/KRAS (ratio of KD value for HRAS to KD value for KRAS),[3],C (A compound having a KD ratio of 0.1 or more and less than 3 is denoted as C)
CCCN1CC(=O)NC2(CCCC2)C(=O)N(C)[C@@H](C2CCCC2)C(=O)N(C)[C@H](C(=O)N2CCOCC2)CC(=O)N(C)[C@@H](CC(C)C)C(=O)N[C@@H]([C@@H](C)CC)C(=O)N2CC[C@H]2C(=O)N(C)CC(=O)N(CCC)[C@@H](Cc2ccc(C(F)(F)F)cc2)C(=O)N(C)CC(=O)N[C@@H](CCc2ccc(C(F)(F)F)c(Cl)c2)C1=O [PP0315] ([NMeL]I[Aze][Sar][NPrPhe(4-CF3)][Sar][hPhe(3-Cl-4-CF3)][NPrGly][Ac5c][NMeGly(cPent)][NMeD]-Morpholide; lactam N-11),Kd,[1]; [5],3.8 nM
same,NRAS/KRAS (ratio of KD value for NRAS to KD value for KRAS),[2],B (a compound having 3 or more and less than 10 is denoted as B)
same,HRAS/KRAS (ratio of KD value for HRAS to KD value for KRAS),[3],B (a compound having 3 or more and less than 10 is denoted as B)
CC[C@H](C)[C@@H]1NC(=O)[C@H](CC(C)C)N(C)C(=O)C[C@@H](C(=O)N2CCOCC2)N(C)C(=O)[C@H](C2CCCC2)N(C)C(=O)C2(CCCC2)NC(=O)[C@@H]2CCCN2C(=O)[C@H](CCc2ccc(C(F)(F)F)c(Cl)c2)NC(=O)CN(C)C(=O)[C@H](Cc2ccc(C(F)(F)F)cc2)N(CC(C)C)C(=O)CN(C)C(=O)CN(C)C1=O [PP0121] ([NMeL]I[Sar][Sar][X40][Sar][hPhe(3-Cl-4-CF3)]P[Ac5c][NMeGly(cPent)][NMeD]-Morpholide; lactam N-11),Kd,[1]; [5],2.1 nM
same,NRAS/KRAS (ratio of KD value for NRAS to KD value for KRAS),[2],C (A compound having a KD ratio of 0.1 or more and less than 3 is denoted as C)
same,HRAS/KRAS (ratio of KD value for HRAS to KD value for KRAS),[3],C (A compound having a KD ratio of 0.1 or more and less than 3 is denoted as C)
CC[C@H](C)[C@@H]1NC(=O)[C@H](CC(C)C)N(C)C(=O)C[C@@H](C(=O)N2CCOCC2)N(C)C(=O)[C@H](C2CCCC2)N(C)C(=O)C2(CCC2)NC(=O)[C@@H]2CC(F)(F)CN2C(=O)[C@H](CCc2cc(F)c(C(F)(F)F)c(F)c2)NC(=O)CN(C)C(=O)[C@H](Cc2ccc(C(F)(F)F)cc2)N2CCCCC[C@@H](C2=O)N(C)C(=O)CN(C)C1=O [PP0464],Kd,[1]; [5],0.92 nM
same,NRAS/KRAS (ratio of KD value with respect to NRAS to KD value with respect to KRAS),[2],B (a compound having 3 or more and less than 10 is denoted as B)
same,HRAS/KRAS (ratio of KD value with respect to HRAS to KD value with respect to KRAS),[3],B (a compound having 3 or more and less than 10 is denoted as B)
CCC[C@H]1C(=O)N[C@@H](C2CCCC2)C(=O)N(C)CC(=O)N(C)[C@H]2C/C=C\CCN(C2=O)[C@@H](Cc2ccc(C(F)(F)F)cc2)C(=O)N(C)CC(=O)N[C@@H](CCc2ccc(C(F)(F)F)c(Cl)c2)C(=O)N2C[C@H](OCC)C[C@H]2C(=O)NC2(CC(C)(C)C2)C(=O)N(C)[C@@H](C2CCCC2)C(=O)N(C)[C@H](C(=O)N(C)C)CC(=O)N1C [PP2984],Kd,"[1]; SPR, Single Cycle Kinetics",0.2 nM
same,NRAS/KRAS (ratio of KD value for NRAS to KD value for KRAS),[2],A (a compound having 10 or more and less than 20 is denoted as A)
same,HRAS/KRAS (ratio of KD value for HRAS to KD value for KRAS),[3],B (a compound having 3 or more and less than 10 is denoted as B)

# Reference: US20240158446A1, “CYCLIC COMPOUND HAVING SELECTIVE INHIBITORY ACTION ON KRAS OVER HRAS AND NRAS” (CHUGAI SEIYAKU KABUSHIKI KAISHA, priority 2021, published 2024)
